The supplement of paper PMC8092582
Counter-ions that a name gives are not always drawn. ± gives the standard deviation of the averaged measurements.

System: HeLa
Assay: cell viability (CellTiter-Glo) relative to median of lowest-dilution wells of all drugs (fraction); higher = more viable cells
Method: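 HeLa control and CRISPR DDX11 knockout cells were seeded in 384-well plates and incubated for 72 h with each of 64 […] drugs at six concentrations. Viability was read with CellTiter-Glo and normalised to the median of the lowest (6th) dilution wells of all drugs. Two biological replicates (BR1, BR2) are averaged; the concentration unit is not stated.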

[1] = drug concentration (unit not stated): 0.04, genotype: DDX11 knockout
[2] = drug concentration (unit not stated): 0.04, genotype: control (DDX11 wild type)
[3] = drug concentration (unit not stated): 0.12, genotype: DDX11 knockout
[4] = drug concentration (unit not stated): 0.12, genotype: control (DDX11 wild type)
[5] = drug concentration (unit not stated): 0.37, genotype: DDX11 knockout
[6] = drug concentration (unit not stated): 0.37, genotype: control (DDX11 wild type)
[7] = drug concentration (unit not stated): 1.11, genotype: DDX11 knockout
[8] = drug concentration (unit not stated): 1.11, genotype: control (DDX11 wild type)
[9] = drug concentration (unit not stated): 3.33, genotype: DDX11 knockout
[10] = drug concentration (unit not stated): 3.33, genotype: control (DDX11 wild type)
[11] = drug concentration (unit not stated): 10, genotype: DDX11 knockout
[12] = drug concentration (unit not stated): 10, genotype: control (DDX11 wild type)
[13] = drug concentration (unit not stated): 0.01, genotype: DDX11 knockout
[14] = drug concentration (unit not stated): 0.01, genotype: control (DDX11 wild type)

Row | SMILES | cell viability [1] | cell viability [2] | cell viability [3] | cell viability [4] | cell viability [5] | cell viability [6] | cell viability [7] | cell viability [8] | cell viability [9] | cell viability [10] | cell viability [11] | cell viability [12] | cell viability [13] | cell viability [14] | cell viability (drug concentration (unit not stated): 30, genotype: DDX11 knockout) | cell viability (drug concentration (unit not stated): 30, genotype: control (DDX11 wild type))
1 | Nc1ncn([C@H]2C[C@H](O)[C@@H](CO)O2)c(=O)n1 [Decitabine] | 1.062 ± 0.0019 | 1.0513 ± 0.0006 | 1.01 ± 0.16 | 1.06 ± 0.019 | 1.03 ± 0.12 | 1.03 ± 0.043 | 0.973 ± 0.012 | 1.05 ± 0.054 | 0.975 ± 0.099 | 1.1 ± 0.097 | 0.867 ± 0.018 | 1.11 ± 0.086 |  |  |  | 
2 | CCc1cnn2c(NCc3ccc[n+]([O-])c3)cc(N3CCCC[C@H]3CCO)nc12 [Dinaciclib] | 0.189 ± 0.0066 | 0.232 ± 0.063 | 0.182 ± 0.011 | 0.239 ± 0.068 | 0.171 ± 0.019 | 0.264 ± 0.096 | 0.169 ± 0.0065 | 0.254 ± 0.097 |  |  |  |  | 0.119 ± 0.011 | 0.0976 ± 0.048 |  | 
3 | COc1cccc2c1C(=O)c1c(O)c3c(c(O)c1C2=O)C[C@@](O)(C(=O)CO)C[C@@H]3O[C@H]1C[C@H](N)[C@H](O)[C@H](C)O1 [Doxorubicin (Adriamycin)] | 0.923 ± 0.087 | 0.986 ± 0.0043 | 0.75 ± 0.18 | 0.96 ± 0.41 | 0.328 ± 0.4 | 0.679 ± 0.6 | 0.024 ± 0.0057 | 0.153 ± 0.2 | 0.0172 ± 0.0017 | 0.0179 ± 0.006 |  |  | 1.02 ± 0.03 | 0.9786 ± 0.0019 |  | 
4 | COc1cccc2c1C(=O)c1c(O)c3c(c(O)c1C2=O)C[C@@](O)(C(=O)CO)C[C@@H]3O[C@H]1C[C@H](N)[C@@H](O)[C@H](C)O1 [Epirubicin Hydrochloride] | 0.89 ± 0.23 | 0.967 ± 0.084 | 0.596 ± 0.37 | 0.902 ± 0.42 | 0.304 ± 0.39 | 0.55 ± 0.72 | 0.0326 ± 0.0056 | 0.164 ± 0.21 | 0.0161 ± 0.003 | 0.0225 ± 0.011 |  |  | 1.02 ± 0.021 | 1.04 ± 0.05 |  | 
5 | COc1cc([C@@H]2c3cc4c(cc3[C@@H](O[C@@H]3O[C@@H]5CO[C@@H](C)O[C@H]5[C@H](O)[C@H]3O)[C@H]3COC(=O)[C@H]23)OCO4)cc(OC)c1O [Etoposide (VP-16)] | 0.993 ± 0.062 | 0.992 ± 0.036 | 0.913 ± 0.1 | 0.985 ± 0.015 | 0.737 ± 0.18 | 0.978 ± 0.18 | 0.477 ± 0.24 | 0.842 ± 0.39 | 0.165 ± 0.14 | 0.35 ± 0.33 | 0.0411 ± 0.033 | 0.0423 ± 0.033 |  |  |  | 
6 | O=c1[nH]c(=O)n([C@H]2C[C@H](O)[C@@H](CO)O2)cc1F [Floxuridine] | 1 ± 0.05 | 1.1 ± 0.054 | 0.961 ± 0.15 | 0.998 ± 0.019 | 1.01 ± 0.13 | 0.952 ± 0.19 | 0.858 ± 0.19 | 0.874 ± 0.31 | 0.76 ± 0.43 | 0.786 ± 0.51 |  |  | 1.04 ± 0.047 | 1.2 ± 0.21 |  | 
7 | Nc1nc(F)nc2c1ncn2[C@@H]1O[C@H](COP(=O)(O)O)[C@@H](O)[C@@H]1O [Fludarabine Phosphate (Fludara)] | 1.0709 ± 0.00057 | 1.04 ± 0.014 | 1.03 ± 0.061 | 1.04 ± 0.012 | 1.02 ± 0.12 | 1.0367 ± 0.00023 | 1.08 ± 0.024 | 1.07 ± 0.029 | 1.06 ± 0.046 | 1.15 ± 0.028 | 1.07 ± 0.027 | 1.16 ± 0.12 |  |  |  | 
8 | O=c1[nH]c(=O)n(C2CCCO2)cc1F (stereo unspecified) [Ftorafur (Tegafur)] | 0.985 ± 0.063 | 0.953 ± 0.027 | 1 ± 0.057 | 1.01 ± 0.014 | 1.02 ± 0.016 | 1.01 ± 0.026 | 1 ± 0.016 | 1.01 ± 0.028 | 1.013 ± 0.0085 | 1.03 ± 0.014 |  |  | 0.991 ± 0.11 | 0.978 ± 0.05 |  | 
9 | Nc1ccn([C@@H]2O[C@H](CO)[C@@H](O)C2(F)F)c(=O)n1 [Gemcitabine HCl (Gemzar)] | 0.0446 ± 0.0085 | 0.0383 ± 0.016 | 0.0501 ± 0.015 | 0.0767 ± 0.053 | 0.0439 ± 0.017 | 0.065 ± 0.04 | 0.0472 ± 0.028 | 0.0514 ± 0.028 |  |  |  |  | 0.0596 ± 0.017 | 0.0573 ± 0.021 |  | 
10 | CCS(=O)(=O)Nc1ccc2c(c1)/C(=C(/Nc1ccc(CN3CCCCC3)cc1)c1ccccc1)C(=O)N2 [Hesperadin] | 0.981 ± 0.038 | 0.9913 ± 0.0085 | 0.85 ± 0.077 | 0.995 ± 0.26 | 0.79 ± 0.011 | 0.966 ± 0.21 | 0.696 ± 0.026 | 0.838 ± 0.12 |  |  |  |  | 1.038 ± 0.0037 | 1.02 ± 0.011 |  | 
11 | NC(=O)c1ccc(I)c([N+](=O)[O-])c1 [Iniparib (BSI-201)] |  |  | 1.01 ± 0.022 | 0.996 ± 0.031 | 1.06 ± 0.0055 | 0.981 ± 0.077 | 1.03 ± 0.045 | 0.951 ± 0.08 | 0.996 ± 0.028 | 0.969 ± 0.12 | 1.02 ± 0.062 | 0.93 ± 0.17 |  |  | 0.839 ± 0.094 | 0.92546 ± 0.00092
